According to article PMC6247689, “Determination of the volatile and polyphenol constituents and the antimicrobial, antioxidant, and tyrosinase inhibitory activities of the bioactive compounds from the by-product of Rosa rugosa Thunb. var. plena Regal tea” (BMC Complementary and Alternative Medicine, 2018):
In brackets after ≈: the same amount, converted by molar mass. Read-outs that look alike come from different tables or passages of the source.

How the values were obtained:
[1] = DPPH radical scavenging activity; conditions: 30 min in the dark, 517 nm; positive control = ascorbic acid
Procedure: The antioxidant activity of RFCS and the standards were evaluated by DPPH radical scavenging activity using a slightly modified version of a previously reported method. […] Aliquots (100 μL) of the supernatants were transferred into a 96-well microplate, and the absorbance of each was recorded at 517 nm using a Spectramax Plus384 UV-Vis spectrophotometer (Molecular Devices, Sunnyvale, California, USA). […] The IC50 values, which represent the concentrations of rose samples and standard substance at which 50% of the DPPH radical was inhibited, were determined. The tests were performed in triplicate, and the percentage of DPPH scavenging was calculated using the following equation. Inhibition%=H0-H/H0×100 H:Absorbance of RFCS and the standards;H0:Absorbance of the blank

[2] = ABTS radical scavenging; conditions: 30 °C, 30 min; positive control = Trolox
Procedure: The ABTS assay of RFCS was performed according to a modified version of a previously reported method. Briefly, the stock solutions were generated by mixing equal quantities of 7.4 mM ABTS^●+ solution and 2.6 mM potassium persulfate solution, and the mixture was incubated at room temperature for 12 h in the dark. Then, the solution was equilibrated with 1 mL of ABTS^●+ solution with 50% ethanol serving as a positive control. The absorbance of the solution at 734 nm was 1.17 ± 0.02 units. […] The mixture was mixed vigorously and incubated at 30 °C for 30 min. The absorbance was then measured at […] using the spectrophotometer. […] Inhibition%=Absorbance of blank-Absorbance of sample/Absorbance of blank×100

[3] = target: mushroom tyrosinase; assay: Tyrosinase inhibitory activity (spectrophotometric, DOPA substrate); format: biochemical; conditions: pH 6.8, 37 °C, 15 min, positive control = kojic acid
Procedure: The reaction mixture was vortexed and maintained at 37 °C for 15 min, and then the absorption maximum of dopachrome (set at 479 nm) was measured using a microplate reader (Molecular Devices, Sunnyvale, California, USA). The tests were performed in triplicate, and the value of tyrosinase inhibition activity was calculated as described above.

[4] = tested on: Escherichia coli (ATCC 25922); assay: MIC and MBC, broth microdilution; format: cell-based; conditions: E. coli; for MIC: 37 °C, 24 h
Procedure: (§1) The antimicrobial activity was measured by the method described by Xue. All standard strains were obtained from the Guangdong Microbiology Culture Center (Guangzhou, China). Listeria ivanovii (ATCC 19119) was cultured in BHI, Salmonella enteritidis enteritidis (ATCC 14028) Staphylococcus aureus (ATCC 25923) and Escherichia coli (ATCC 25922) were cultured in nutrient agar (NA) for 24 h and at 37 °C. candida albicans (ATCC 10231) was cultured in PHB at 37 °C for 24 h. Propionibacterium acnes (ATCC 6919) and Fusobacterium nucleatum (ATCC 10953) were cultured in CDC agar at 37 °C for 48 h in a YQX-II anaerobic incubator (Shanghai, China). The final cell counts in l mL of broth were approximately 10^6 colony-forming units (CFU/mL). A 10 mg/mL solution of miconazole nitrate and hydrochloride tetracycline in water was used as a positive control against fungi and bacteria, respectly.
(§2) The MIC and MBC or MFC values were determined as described previously by Xue. Briefly, 100 μL dilutions (approximately 100,000 CFU/mL) of Staphylococcus aureus, Escherichia coli, Salmonella enteritidis enteritidis, Fusobacterium nucleatum, and Candida albicans in nutrient broth and Listeria ivanovii and Propionibacterium acnes in GMA broth were inoculated into microtiter plates. Then, 100 μL aliquots of the solutions of the test compound were added after a two-fold serial dilution with nutrient broth (from 2 mg/mL to 3 μg/mL). Broths with 5% (v/v) DMSO were used as controls. The petri dishes were incubated at 37 °C for 24 h with the exception of Propionibacterium acnes and Fusobacterium nucleatum, which were incubated at 37 °C for 48 h. The MIC was recorded as the lowest concentration of sample showing no detectable growth. To determine the MBC or MFC values for no bacterial or fungus growth, 10 μL of sub-inhibitory concentrations of the test compounds were incubated on CDC or GMA agar plates for 24 or 48 h. Every determination was carried out in triplicate.

[5] = tested on: Fusobacterium nucleatum (ATCC 10953); assay: MIC and MBC, broth microdilution; format: cell-based; conditions: F. nucleatum; for MIC: anaerobic, 37 °C, 48 h
Procedure: as §1, §2

[6] = tested on: Listeria ivanovii (ATCC 19119); assay: MIC and MBC, broth microdilution; format: cell-based; conditions: L. ivanovii; for MIC: 37 °C, 24 h
Procedure: as §1, §2

[7] = tested on: Propionibacterium acnes (ATCC 6919); assay: MIC and MBC, broth microdilution; format: cell-based; conditions: P. acnes; for MIC: anaerobic, 37 °C, 48 h
Procedure: as §1, §2

[8] = tested on: Salmonella enteritidis enteritidis (ATCC 14028); assay: MIC and MBC, broth microdilution; format: cell-based; conditions: S. enteritidis enteritidis; for MIC: 37 °C, 24 h
Procedure: as §1, §2

[9] = tested on: Staphylococcus aureus (ATCC 25923); assay: MIC and MBC, broth microdilution; format: cell-based; conditions: S. aureus; for MIC: 37 °C, 24 h
Procedure: as §1, §2

[10] = tested on: candida albicans (ATCC 10231); assay: MIC and MFC, broth microdilution; format: cell-based; conditions: C. albicans; for MIC: 37 °C, 24 h
Procedure: as §1, §2

[11] = Escherichia coli, ATCC25922, read-out: MBC
[12] = Fusobacterium nucleatum, ATCC10953, read-out: MIC
[13] = Fusobacterium nucleatum, ATCC10953, read-out: MBC
[14] = Listeria ivanovii, ATCC19119, read-out: MIC
[15] = Listeria ivanovii, ATCC19119, read-out: MBC
[16] = Cutibacterium acnes, ATCC6919, read-out: MBC
[17] = Staphylococcus aureus, ATCC25923, read-out: MIC
[18] = Staphylococcus aureus, ATCC25923, read-out: MBC
[19] = Candida albicans, ATCC10231, read-out: MIC
[20] = Candida albicans, ATCC10231, read-out: MFC

O=c1c(O[C@@H]2O[C@H](CO)[C@H](O)[C@H](O)[C@H]2O)c(-c2ccc(O)c(O)c2)oc2cc(O)cc(O)c12 [Hyperoside]
DPPH radical scavenging activity IC50 [1]: 0.695 ± 0.021 c μg/mL
ABTS radical scavenging activity IC50 [2]: 0.526 ± 0.014 c μg/mL
Tyrosinase inhibition IC50 [3]: 0.762 ± 0.018 µg/mL
Tyrosinase inhibition IC50 ([3]; listed as hyperoside): < 1 µg/mL
MIC ([4]; Escherichia coli, ATCC25922, read-out: MIC): 250 µg/mL (≈ 538 µM)
MBC [4, 11]: 1000 µg/mL (≈ 2150 µM)
MIC [5, 12]: 250 µg/mL (≈ 538 µM)
MBC [5, 13]: 500 µg/mL (≈ 1080 µM)
MIC [6, 14]: 250 µg/mL (≈ 538 µM)
MBC [6, 15]: 500 µg/mL (≈ 1080 µM)
MIC ([7]; Cutibacterium acnes, ATCC6919, read-out: MIC): 250 µg/mL (≈ 538 µM)
MBC [7, 16]: 1000 µg/mL (≈ 2150 µM)
MIC ([8]; Salmonella enterica, read-out: MIC): 250 µg/mL (≈ 538 µM)
MBC ([8]; Salmonella enterica, read-out: MBC): 500 µg/mL (≈ 1080 µM)
MIC [9, 17]: 250 µg/mL (≈ 538 µM)
MBC [9, 18]: 1000 µg/mL (≈ 2150 µM)
MIC [10, 19]: 250 µg/mL (≈ 538 µM)
MFC [10, 20]: 1000 µg/mL (≈ 2150 µM)

CN(C)[C@@H]1C(=O)C(C(N)=O)=C(O)[C@@]2(O)C(=O)C3=C(O)c4c(O)cccc4[C@@](C)(O)[C@H]3C[C@@H]12.Cl [Hydrochloride tetracycline]
MBC [5]: 2 µg/mL
MIC [5]: 2 µg/mL
MBC [6]: < 0.1 µg/mL
MIC [6]: < 0.1 µg/mL
MIC [7]: 8 µg/mL
MIC [8]: 8 µg/mL

O=c1cc(-c2ccc(O)c(O)c2)oc2cc(O)cc(O)c12 [Luteolin]
DPPH radical scavenging activity IC50 [1]: 0.507 ± 0.015 c μg/mL
ABTS radical scavenging activity IC50 [2]: 0.436 ± 0.026 c μg/mL
Tyrosinase inhibition IC50 [3]: 0.613 ± 0.016 µg/mL
MBC [4, 11]: 1000 µg/mL (≈ 3490 µM)
MIC [5, 12]: 125 µg/mL (≈ 437 µM)
MBC [5, 13]: 500 µg/mL (≈ 1750 µM)
MIC [6, 14]: 500 µg/mL (≈ 1750 µM)
MBC [6, 15]: 1000 µg/mL (≈ 3490 µM)
MBC [7, 16]: 500 µg/mL (≈ 1750 µM)
MIC [9, 17]: 500 µg/mL (≈ 1750 µM)
MBC [9, 18]: > 1000 µg/mL
MFC [10, 20]: 500 µg/mL (≈ 1750 µM)

Kaempferol-3-O-Rutinoside
DPPH radical scavenging activity IC50 [1]: 0.808 ± 0.024 c μg/mL
ABTS radical scavenging activity IC50 [2]: 0.719 ± 0.016 c μg/mL
Tyrosinase inhibition IC50 [3]: 0.908 ± 0.021 µg/mL
Tyrosinase inhibition IC50 ([3]; listed as kaempferol-3-O-rutinosid): < 1 µg/mL
MBC [4]: > 1000 µg/mL
MIC [4]: 500 µg/mL
MBC [5]: > 1000 µg/mL
MIC [5]: 500 µg/mL
MBC [6]: 1000 µg/mL
MIC [6]: 500 µg/mL
MBC [7]: 1000 µg/mL
MIC [7]: 500 µg/mL
MBC [8]: > 1000 µg/mL
MIC [8]: 500 µg/mL
MBC [9]: 1000 µg/mL
MIC [9]: 250 µg/mL
MFC [10]: 1000 µg/mL
MIC [10]: 250 µg/mL

Clc1ccc(COC(Cn2ccnc2)c2ccc(Cl)cc2Cl)c(Cl)c1 (centres unmarked) [Miconazole Nitrate]
MBC [4, 11]: 16 µg/mL
MIC [10, 19]: 8 µg/mL
